# Reference: patent US7074959B2, “Methods and systems for remediating hydrazine-contaminated equipment and/or surfaces” (New Mexico Highlands University, priority 2002, dated 2006)
# How the values were obtained:
# [1] = MSDS listing; cited from earlier work
# [2] = solubility of the hydrazine/2-ketoglutaric acid adduct in water; assay type: physicochemical; details: allows separation of most of the adduct by simple filtration
# Source text: FIG. 3 illustrates a schematic diagram 300 depicting a reaction of 2-ketoglutataric acid, which provides a near quantitative conversion of hydrazine to a 6-oxo-1,4,5,6-tetrahydro-pyridazine-3-carbonic acid, a preferred embodiment of the present invention. In general, the chemical transformation depicted in schematic diagram 300 of FIG. 3 allows for the removal of hydrazine from aqueous solutions generated by the decontamination processes described herein. The reaction with concentrated hydrazine also can provide the desired product with some evolution of heat.
structure (smiles),measurement,setting,value
"O=C1CCC(C(=O)O)=NN1 [6-oxo-1,4,5,6-tetrahydro-pyridazine-3-carbonic acid]",known acute toxicities listed in MSDS,[1],does not list any known acute toxicities
same,solubility in water,[2],low solubility
